For 23 compounds, IC50 results are on record in patent US20240317721A1, “PYRAZOLYL DERIVATIVES AS INHIBITORS OF THE KRAS MUTANT PROTEIN” (NOVARTIS AG, priority 2021, published 2024).

Molecules are shown by their SMILES.

This test concerns the target KRasG12C (M1-K169, biotinylated on the N-terminus) (Homo sapiens (Human), UniProt P01116, G12C). Nature of the test: Covalent competition assay: scintillation proximity assay (SPA) quantifying covalent modification of KRASG12C. The note with it: competition with radiolabeled covalent probe (Compound B/Compound A), 2 hours incubation, 10 nM KRasG12C. Format: binding. The method, boiled down: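 Scintillation proximity readout after streptavidin bead capture (30 min) of biotinylated KRasG12C(M1-K169):GDP, 10 nM final, which was covalently labelled over 2 h by 25 nM radio-probe plus 475 nM cold probe unless blocked by compound.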
The term IC50 denotes the midpoint of a concentration-inhibition curve. As to `C=CC(=O)N1CC2(CC(n3nc(N4CCC(N(C)C5COC5)CC45CCC5)c(-c4c(Cl)c(C)cc5[nH]nc(N)c45)c3C)C2)C1` (single isomer, unassigned) [Example 115a, 1-(6-(4-(3-amino-5-chloro-6-methyl-1H-indazol-4-yl)-5-methyl-3-(8-(methyl(oxetan-3-yl)amino)-5-azaspiro[3.5]nonan-5-yl)-1H-pyrazol-1-yl)-2-azaspiro[3.3]heptan-2-yl)prop-2-en-1-one], the IC50 is 7 nM.

`C=CC(=O)N1CC2(CC(n3nc(N4CCC(N(C)C5COC5)CC45CCC5)c(-c4c(Cl)c(C)cc5[nH]nc(N)c45)c3C)C2)C1` (single isomer, unassigned) [Example 115b, 1-(6-(4-(3-amino-5-chloro-6-methyl-1H-indazol-4-yl)-5-methyl-3-(8-(methyl(oxetan-3-yl)amino)-5-azaspiro[3.5]nonan-5-yl)-1H-pyrazol-1-yl)-2-azaspiro[3.3]heptan-2-yl)prop-2-en-1-one]: the IC50 turned out to be 246 nM.

Regarding `C=CC(=O)N1CC2(CC(n3nc(N4CCC(N(C)C5COC5)CC45CCC5)c(-c4c(Cl)c(C)cc5[nH]nc(N)c45)c3C)C2)C1` (single isomer, unassigned) [Example 116a, 1-(6-(4-(3-amino-5-chloro-6-methyl-1H-indazol-4-yl)-5-methyl-3-(8-(methyl(oxetan-3-yl)amino)-5-azaspiro[3.5]nonan-5-yl)-1H-pyrazol-1-yl)-2-azaspiro[3.3]heptan-2-yl)prop-2-en-1-one], the IC50 came out at 205 nM.

For the compound `C=CC(=O)N1CC2(CC(n3nc(N4CCC(N(C)C5COC5)CC45CCC5)c(-c4c(Cl)c(C)cc5[nH]nc(N)c45)c3C)C2)C1` (single isomer, unassigned) [Example 116b, 1-(6-(4-(3-amino-5-chloro-6-methyl-1H-indazol-4-yl)-5-methyl-3-(8-(methyl(oxetan-3-yl)amino)-5-azaspiro[3.5]nonan-5-yl)-1H-pyrazol-1-yl)-2-azaspiro[3.3]heptan-2-yl)prop-2-en-1-one], the IC50 was found to be 1900 nM.

Regarding `C=CC(=O)N1CC2(CC(n3nc(N4CCN(CC(C)(C)O)CC45CCC5)c(-c4c(Cl)c(C)cc5[nH]nc(N)c45)c3C)C2)C1` (single isomer, unassigned) [Example 117a, 1-(6-(4-(3-amino-5-chloro-6-methyl-1H-indazol-4-yl)-3-(8-(2-hydroxy-2-methylpropyl)-5,8-diazaspiro[3.5]nonan-5-yl)-5-methyl-1H-pyrazol-1-yl)-2-azaspiro[3.3]heptan-2-yl)prop-2-en-1-one], the IC50 was found to be 9 nM.

Take `C=CC(=O)N1CC2(CC(n3nc(N4CCN(CC(C)(C)O)CC45CCC5)c(-c4c(Cl)c(C)cc5[nH]nc(N)c45)c3C)C2)C1` (single isomer, unassigned) [Example 117b, 1-(6-(4-(3-amino-5-chloro-6-methyl-1H-indazol-4-yl)-3-(8-(2-hydroxy-2-methylpropyl)-5,8-diazaspiro[3.5]nonan-5-yl)-5-methyl-1H-pyrazol-1-yl)-2-azaspiro[3.3]heptan-2-yl)prop-2-en-1-one]: the concentration for half-maximal inhibition (IC50) is 1600 nM.

Regarding `C=CC(=O)N1CC2(CC(n3nc(N4CCN(C[C@@H]5COCCO5)C[C@]4(C)COC)c(-c4c(Cl)c(C)cc5[nH]nc(N)c45)c3C)C2)C1` (single isomer, unassigned) [Example 118a], the IC50 was found to be 15 nM.

Turning to `C=CC(=O)N1CC2(CC(n3nc(N4CCN(C[C@@H]5COCCO5)C[C@]4(C)COC)c(-c4c(Cl)c(C)cc5[nH]nc(N)c45)c3C)C2)C1` (single isomer, unassigned) [Example 118b], the IC50 came to 818 nM.

In the case of `C=CC(=O)N1CC2(CC(n3nc(N4CCC(N5CC6COCC(C5)O6)CC4(C)C)c(-c4c(Cl)c(C)cc5[nH]ncc45)c3C)C2)C1` (single isomer, unassigned) [Example 119a, 1-(6-(3-(4-(3,9-dioxa-7-azabicyclo[3.3.1]nonan-7-yl)-2,2-dimethylpiperidin-1-yl)-4-(5-chloro-6-methyl-1H-indazol-4-yl)-5-methyl-1H-pyrazol-1-yl)-2-azaspiro[3.3]heptan-2-yl)prop-2-en-1-one], the IC50 was determined as 2800 nM.

For the compound `C=CC(=O)N1CC2(CC(n3nc(N4CCC(N5CC6COCC(C5)O6)CC4(C)C)c(-c4c(Cl)c(C)cc5[nH]ncc45)c3C)C2)C1` (single isomer, unassigned) [Example 119b, 1-(6-(3-(4-(3,9-dioxa-7-azabicyclo[3.3.1]nonan-7-yl)-2,2-dimethylpiperidin-1-yl)-4-(5-chloro-6-methyl-1H-indazol-4-yl)-5-methyl-1H-pyrazol-1-yl)-2-azaspiro[3.3]heptan-2-yl)prop-2-en-1-one], the IC50 turned out to be 36 nM.

For the compound `CC[C@@]1(C)CN(C[C@@H]2COCCO2)CCN1c1nn(C2CC3(C2)CN(C(=O)/C=C/COC)C3)c(C)c1-c1c(Cl)c(C)cc2[nH]ncc12` (single isomer, unassigned) [Example 120a], the IC50 is above 5000 nM.

On to `CC[C@@]1(C)CN(C[C@@H]2COCCO2)CCN1c1nn(C2CC3(C2)CN(C(=O)/C=C/COC)C3)c(C)c1-c1c(Cl)c(C)cc2[nH]ncc12` (single isomer, unassigned) [Example 120b], for which the IC50 was found to be 140 nM.

As to `C=CC(=O)N1CC2(CC(n3nc(N4CCN(C(=O)OCCOC)CC45CCC5)c(-c4c(Cl)c(C)cc5[nH]ncc45)c3C)C2)C1` (single isomer, unassigned) [Example 122a, 2-methoxyethyl 5-(1-(2-acryloyl-2-azaspiro[3.3]heptan-6-yl)-4-(5-chloro-6-methyl-1H-indazol-4-yl)-5-methyl-1H-pyrazol-3-yl)-5,8-diazaspiro[3.5]nonane-8-carboxylate], the 50% inhibitory concentration (IC50) is above 5000 nM.

For `C=CC(=O)N1CC2(CC(n3nc(N4CCN(C(=O)OCCOC)CC45CCC5)c(-c4c(Cl)c(C)cc5[nH]ncc45)c3C)C2)C1` (single isomer, unassigned) [Example 122b, 2-methoxyethyl 5-(1-(2-acryloyl-2-azaspiro[3.3]heptan-6-yl)-4-(5-chloro-6-methyl-1H-indazol-4-yl)-5-methyl-1H-pyrazol-3-yl)-5,8-diazaspiro[3.5]nonane-8-carboxylate], the IC50 was 16 nM.

For `C=CC(=O)N1CC2(CC(n3nc(N4CCN(C(=O)COC)CC45CCC5)c(-c4c(Cl)c(C)cc5[nH]ncc45)c3C)C2)C1` (single isomer, unassigned) [Example 123a, 1-(6-(4-(5-chloro-6-methyl-1H-indazol-4-yl)-3-(8-(2-methoxyacetyl)-5,8-diazaspiro[3.5]nonan-5-yl)-5-methyl-1H-pyrazol-1-yl)-2-azaspiro[3.3]heptan-2-yl)prop-2-en-1-one], the IC50 is above 5000 nM.

Consider `C=CC(=O)N1CC2(CC(n3nc(N4CCN(C(=O)COC)CC45CCC5)c(-c4c(Cl)c(C)cc5[nH]ncc45)c3C)C2)C1` (single isomer, unassigned) [Example 123b, 1-(6-(4-(5-chloro-6-methyl-1H-indazol-4-yl)-3-(8-(2-methoxyacetyl)-5,8-diazaspiro[3.5]nonan-5-yl)-5-methyl-1H-pyrazol-1-yl)-2-azaspiro[3.3]heptan-2-yl)prop-2-en-1-one], for which the 50% inhibitory concentration (IC50) is 21 nM.

As to `C=CC(=O)N1CC2(CC(n3nc(N4CCN(C(=O)[C@@H]5CCCO5)CC45CCC5)c(-c4c(Cl)c(C)cc5[nH]ncc45)c3C)C2)C1` (single isomer, unassigned) [Example 124a], the IC50 was above 5000 nM.

As for `C=CC(=O)N1CC2(CC(n3nc(N4CCN(C(=O)[C@@H]5CCCO5)CC45CCC5)c(-c4c(Cl)c(C)cc5[nH]ncc45)c3C)C2)C1` (single isomer, unassigned) [Example 124b], the IC50 came to 20 nM.

For the compound `C=CC(=O)N1CC2(CC(n3nc(N4CCN(C(=O)OC)CC4(C)C)c(-c4c(Cl)c(C)cc5[nH]ncc45)c3C)C2)C1` (single isomer, unassigned) [Example 125a, methyl 4-(1-(2-acryloyl-2-azaspiro[3.3]heptan-6-yl)-4-(5-chloro-6-methyl-1H-indazol-4-yl)-5-methyl-1H-pyrazol-3-yl)-3,3-dimethylpiperazine-1-carboxylate], the IC50 is 2200 nM.

Consider `C=CC(=O)N1CC2(CC(n3nc(N4CCN(C(=O)OC)CC4(C)C)c(-c4c(Cl)c(C)cc5[nH]ncc45)c3C)C2)C1` (single isomer, unassigned) [Example 125b, methyl 4-(1-(2-acryloyl-2-azaspiro[3.3]heptan-6-yl)-4-(5-chloro-6-methyl-1H-indazol-4-yl)-5-methyl-1H-pyrazol-3-yl)-3,3-dimethylpiperazine-1-carboxylate], for which the IC50 was 35 nM.

For `C=CC(=O)N1CC2(CC(n3nc(N4CCN(S(C)(=O)=O)CC4(C)C)c(-c4c(Cl)c(C)cc5[nH]ncc45)c3C)C2)C1` (single isomer, unassigned) [Example 126a, 1-(6-(4-(5-chloro-6-methyl-1H-indazol-4-yl)-3-(2,2-dimethyl-4-(methylsulfonyl)piperazin-1-yl)-5-methyl-1H-pyrazol-1-yl)-2-azaspiro[3.3]heptan-2-yl)prop-2-en-1-one], the IC50 is above 50000 nM.

`C=CC(=O)N1CC2(CC(n3nc(N4CCN(S(C)(=O)=O)CC4(C)C)c(-c4c(Cl)c(C)cc5[nH]ncc45)c3C)C2)C1` (single isomer, unassigned) [Example 126b, 1-(6-(4-(5-chloro-6-methyl-1H-indazol-4-yl)-3-(2,2-dimethyl-4-(methylsulfonyl)piperazin-1-yl)-5-methyl-1H-pyrazol-1-yl)-2-azaspiro[3.3]heptan-2-yl)prop-2-en-1-one]: the IC50 was 170 nM.

As to `C=CC(=O)N1CC2(CC(n3nc(N4CCN(C(=O)C5CC5)CC4(C)C)c(-c4c(Cl)c(C)cc5[nH]ncc45)c3C)C2)C1` (single isomer, unassigned) [Example 127a, 1-(6-(4-(5-chloro-6-methyl-1H-indazol-4-yl)-3-(4-(cyclopropanecarbonyl)-2,2-dimethylpiperazin-1-yl)-5-methyl-1H-pyrazol-1-yl)-2-azaspiro[3.3]heptan-2-yl)prop-2-en-1-one], the IC50 is 25200 nM.
